Data published in patent US10813944B2, “Cyclodextrins as procoagulants” (STICHTING SANQUIN BLOEDVOORZIENING, priority 2016, dated 2020).

Columns and labels:
[1] = system: thrombin generation in pooled normal plasma; assay: Calibrated Automated Thrombogram thrombin generation assay in pooled normal plasma; type: biochemical, human; conditions: for procoagulant effect in normal plasma: no anticoagulant, cyclodextrin 100 μM unless otherwise indicated, 1 pM TF; for procoagulant activity (overview): pooled normal plasma with and without the addition of anticoagulants
Experimental: (§1) FIGS. 3-8, 12, 14-19 and 22-27: Pooled normal plasma was spiked with cyclodextrins (100 μM, unless otherwise indicated) and anticoagulants. The concentrations of the anticoagulants were 100 ng/ml for dabigatran (A), 100 ng/ml for rivaroxaban (B), 60 ng/ml for apixaban (C), 60 ng/ml for edoxaban (D). The plasmas were subjected to thrombin generation analysis as described in the Materials and Methods section with 1 pM tissue factor (TF) as initiator of coagulation.
(§2) The Calibrated Automated Thrombogram® assays the generation of thrombin in clotting plasma using a microtiter plate reading fluorometer (Fluoroskan Ascent, ThermoLab systems, Helsinki, Finland) and Thrombinoscope® software (Thrombinoscope BV, Maastricht, The Netherlands). The assay was carried out as described by Hemker et al. (Pathofysiol. IIaemost. Thromb. 2003, 33, 4-15), and the Thrombinoscope® manual. Coagulation was triggered by recalcification in the presence of 1 or 5 pM recombinant human tissue factor (Innovin®, Siemens, Marburg, Germany), 4 μM phospholipids, and 417 μM fluorogenic substrate Z-Gly-Gly-Arg-AMC (Bachem, Bubendorf, Switzerland). Fluorescence was monitored using the Fluoroskan Ascent fluorometer (ThermoLabsystems, Helsinki, Finland), and the lag time, peak thrombin, velocity index and area under the curve (ETP) were calculated using the Thrombinoscope® software (Thrombinoscope BV).
Thrombin generation analyses were performed in pooled normal plasma with and without the addition of anticoagulants.

[2] = system: thrombin generation in pooled normal plasma spiked with anticoagulants; assay: Thrombin generation assay in pooled normal plasma spiked with anticoagulants; type: biochemical, human; conditions: for effect on the anticoagulant effect of apixaban: apixaban 60 ng/ml; for effect on the anticoagulant effect of apixaban / effect on the anticoagulant effect of dabigatran / effect on the anticoagulant effect of edoxaban / effect on the anticoagulant effect of rivaroxaban: cyclodextrin 100 μM, 1 pM TF; for effect on the anticoagulant effect of dabigatran: dabigatran 100 ng/ml; for effect on the anticoagulant effect of edoxaban: edoxaban 60 ng/ml; for effect on the anticoagulant effect of rivaroxaban: rivaroxaban 100 ng/ml
Experimental: as §1
FIG. 9: Pooled normal plasma was spiked with OKL-1111 (100 μM, unless otherwise indicated (A)) and anticoagulants (B-E). The concentrations of the anticoagulants were 100 ng/ml for dabigatran (B), 100 ng/ml for rivaroxaban (C), 60 ng/ml for apixaban (D), 60 ng/ml for edoxaban (E). The plasmas were subjected to thrombin generation analysis as described in the Materials and Methods section with 1 pM tissue factor (TF) as initiator of coagulation.
FIG. 10: Pooled normal plasma was spiked with OKL-1111 (100 μM) and anticoagulants (A-F). The concentrations of the anticoagulants were 2 μg/ml for fondaparinux (A), 0.4 U/ml for nadroparin (B), 0.1 U/ml for tinzaparin (C), 0.03 U/ml for unfractionated heparin (UFH) (D), 0.5 U/ml for hirudin (E) and 10 μg/ml for bivalirudin (F). The plasmas were subjected to thrombin generation analysis as described in the Materials and Methods section with 1 pM tissue factor (TF) as initiator of coagulation.
as §2

O=C(O)CCCCCSCC1OC2OC3C(CSCCCCCC(=O)O)OC(OC4C(CSCCCCCC(=O)O)OC(OC5C(CSCCCCCC(=O)O)OC(OC6C(CSCCCCCC(=O)O)OC(OC7C(CSCCCCCC(=O)O)OC(OC8C(CSCCCCCC(=O)O)OC(OC1C(O)C2O)C(O)C8O)C(O)C7O)C(O)C6O)C(O)C5O)C(O)C4O)C(O)C3O (centres unmarked) [OKL-1109]
procoagulant effect in normal plasma [1]: small effects
effect on the anticoagulant effect of apixaban [2]: marginal or no effects
effect on the anticoagulant effect of dabigatran [2]: marginal or no effects
effect on the anticoagulant effect of edoxaban [2]: marginal or no effects
effect on the anticoagulant effect of rivaroxaban [2]: marginal or no effects

O=C(O)CCCCCSCC1OC2OC3C(CO)OC(OC4C(CO)OC(OC5C(CO)OC(OC6C(CO)OC(OC7C(CO)OC(OC8C(CO)OC(OC1C(O)C2O)C(O)C8O)C(O)C7O)C(O)C6O)C(O)C5O)C(O)C4O)C(O)C3O (centres unmarked) [OKL-1108]
procoagulant effect in normal plasma [1]: substantial procoagulant effect
effect on the anticoagulant effect of apixaban [2]: antagonized
effect on the anticoagulant effect of dabigatran [2]: antagonized
effect on the anticoagulant effect of edoxaban [2]: antagonized
effect on the anticoagulant effect of rivaroxaban [2]: antagonized

O=C(O)CCSCC1OC2OC3C(CO)OC(OC4C(CO)OC(OC5C(CO)OC(OC6C(CO)OC(OC7C(CO)OC(OC8C(CO)OC(OC9C(CO)OC(OC1C(O)C2O)C(O)C9O)C(O)C8O)C(O)C7O)C(O)C6O)C(O)C5O)C(O)C4O)C(O)C3O (centres unmarked) [OKL-1102, reference compound]
procoagulant effect in normal plasma [1]: did not show procoagulant activity
procoagulant activity (overview) [1]: No
procoagulant effect in plasma containing anticoagulants (not specified / NOACs) [2]: did not show procoagulant activity

O=C(O)CCSCC1OC2OC3C(CSCCC(=O)O)OC(OC4C(CSCCC(=O)O)OC(OC5C(CSCCC(=O)O)OC(OC6C(CSCCC(=O)O)OC(OC7C(CSCCC(=O)O)OC(OC8C(CSCCC(=O)O)OC(OC9C(CSCCC(=O)O)OC(OC1C(O)C2O)C(O)C9O)C(O)C8O)C(O)C7O)C(O)C6O)C(O)C5O)C(O)C4O)C(O)C3O (centres unmarked) [OKL-1103, reference compound]
procoagulant effect in normal plasma [1]: did not show procoagulant activity
procoagulant activity (overview) [1]: No
procoagulant effect in plasma containing anticoagulants (not specified / NOACs) [2]: did not show procoagulant activity

O=C(O)CCCSCC1OC2OC3C(CO)OC(OC4C(CO)OC(OC5C(CO)OC(OC6C(CO)OC(OC7C(CO)OC(OC8C(CO)OC(OC9C(CO)OC(OC1C(O)C2O)C(O)C9O)C(O)C8O)C(O)C7O)C(O)C6O)C(O)C5O)C(O)C4O)C(O)C3O (centres unmarked) [OKL-1106]
procoagulant effect in normal plasma [1]: procoagulant effect
effect on the anticoagulant effect of apixaban [2]: less pronounced
effect on the anticoagulant effect of dabigatran [2]: significantly antagonized
effect on the anticoagulant effect of edoxaban [2]: less pronounced
effect on the anticoagulant effect of rivaroxaban [2]: significantly antagonized

O=C(O)CCCCCCSCC1OC2OC3C(CSCCCCCCC(=O)O)OC(OC4C(CSCCCCCCC(=O)O)OC(OC5C(CSCCCCCCC(=O)O)OC(OC6C(CSCCCCCCC(=O)O)OC(OC7C(CSCCCCCCC(=O)O)OC(OC8C(CSCCCCCCC(=O)O)OC(OC1C(O)C2O)C(O)C8O)C(O)C7O)C(O)C6O)C(O)C5O)C(O)C4O)C(O)C3O (centres unmarked) [OKL-1179]
procoagulant effect in normal plasma [1]: procoagulant activity

O=C(O)CCCCSCC1OC2OC3C(CSCCCCC(=O)O)OC(OC4C(CSCCCCC(=O)O)OC(OC5C(CSCCCCC(=O)O)OC(OC6C(CSCCCCC(=O)O)OC(OC7C(CSCCCCC(=O)O)OC(OC8C(CSCCCCC(=O)O)OC(OC1C(O)C2O)C(O)C8O)C(O)C7O)C(O)C6O)C(O)C5O)C(O)C4O)C(O)C3O (centres unmarked) [OKL-1178]
procoagulant effect in normal plasma [1]: procoagulant activity
